Usually Kd stands for the free concentration of one partner at which half of the binding sites on the other are occupied at equilibrium, for simple one-to-one binding. By IC50 is commonly meant the concentration needed to halve the response being measured. The inhibition is how much of the control response was suppressed.

Series [1] addresses T1, AF9 (Homo sapiens, UniProt P42568).
T1 sequence (P42568 1-568): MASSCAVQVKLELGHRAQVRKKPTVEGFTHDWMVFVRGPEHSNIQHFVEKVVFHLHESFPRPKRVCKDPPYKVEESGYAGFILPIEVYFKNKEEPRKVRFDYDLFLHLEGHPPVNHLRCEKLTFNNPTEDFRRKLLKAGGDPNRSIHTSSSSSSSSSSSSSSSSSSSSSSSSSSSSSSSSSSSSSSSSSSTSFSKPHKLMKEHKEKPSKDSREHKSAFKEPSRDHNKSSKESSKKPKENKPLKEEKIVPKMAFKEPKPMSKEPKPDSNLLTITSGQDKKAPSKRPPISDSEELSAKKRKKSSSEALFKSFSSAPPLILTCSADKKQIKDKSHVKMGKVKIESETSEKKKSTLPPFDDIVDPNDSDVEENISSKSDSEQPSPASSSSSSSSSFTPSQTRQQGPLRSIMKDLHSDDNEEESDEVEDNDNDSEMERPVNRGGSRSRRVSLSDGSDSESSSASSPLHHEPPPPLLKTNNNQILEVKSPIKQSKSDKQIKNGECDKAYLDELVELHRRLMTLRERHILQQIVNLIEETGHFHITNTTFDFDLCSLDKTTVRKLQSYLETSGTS
As to the kind of experiment: OctetRed Bio-Layer Interferometry binding to immobilized AF9. Conditions: OctetRed BLI. The protocol:
(§1) C) Globally fitted concentration series of 38 (100, 50, 25, 12.5 and 6.25 μM) binding to immobilized AF9 using OctetRed System (see Example 12).
Finally, an orthogonal measure of the disruption of the DOT1L/AF9 protein interaction was obtained using OctetRed system with Bio-Layer Interferometry (BLI) technology. This technology is allowing label-free, real-time biomolecular analysis and determination of binding kinetics and affinity. […] Using global fitting of the binding data in several tested concentrations, the kinetic parameters were calculated. The observed KD values ranged from 10 μM to 50 μM, consistent with the KD from steady state calculations.
For orientation: In BLI a coated tip is dipped into the sample, and binding shifts an interference pattern.

For a further series, the target named is T2, MBP-AF9 (Homo sapiens, UniProt P42568).
T2 sequence (P42568 497-568): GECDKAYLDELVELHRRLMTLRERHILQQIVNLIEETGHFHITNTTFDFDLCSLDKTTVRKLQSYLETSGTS
The experiment in a line: ThermoFluor binding assay, MBP-AF9. The protocol:
as §1
(§2) To provide further validation of the hit selection in addition to the biochemical assays Saturation Transfer Difference (STD), NMR spectroscopy was used. NMR spectroscopy has been successfully utilized to detect and characterize the direct binding of small-molecule compounds to large biomolecules. This technique is also allowing characterization of the binding interactions and maps the ligand-protein contacts in the bound state, delineating which chemical moieties of the ligand molecule are key for molecular recognition by the protein (group epitope mapping, FIG. 20A). […] The direct binding of 38 was also confirmed with ThermoFluor biophysical binding assay. ThermoFluor exploits a well-known biophysical phenomenon where small changes in the intrinsic melting temperature of proteins in the presence of ligands are related to the equilibrium-binding constant. Compounds that interact with the native form of the protein will shift the equilibrium to the left, increasing the Tm, the temperature at which half the protein is unfolded. In the presence of compound 38, the Tm of MBP-AF9 protein increases in a dose-dependent manner, giving ΔTm of 1.2 degree in […] (FIG. 20B).
(In DSF a fluorescence change marks the thermal transition of the protein.)

The subject of another series is H3K79 methylation. As to the kind of experiment: Global H3K79 methylation in MLL-AF9 transformed cells. To be noted: 6 days treatment of MLL-AF9 transformed cells. In kind it is cell-based, mouse. An excerpt:
(§3) FIG. 23 presents cell growth curves of A) MLL-AF9 and B) Hoxa9/Meis1 transformed mouse cells and C) adult LSKs after treatment with 38. D) H3K79 methylation after 6 days treatment with 38 and EPZ004777 DOT1L inhibitor (see, e.g., Daigle, et al., Cancer Cell 20, 53-65 (2011)).
(§4) This example involves the assessment of cellular effects of compound 38. […] Compound 38 inhibited growth of MLL-AF9 cells in a dose-dependent manner (FIG. 23A), with cell growth inhibition starting after 4 days of treatment. […] The hypothesis predicts that compounds that can block the DOT1L recruitment, but not its catalytic activity, will not affect normal hematopoiesis, as well as the global level of H3K79 methylation. To test this hypothesis, the toxicity of compound 38 was tested on purified LSK (lin-sca-1+ckit+) progenitors from adult wild type mice (FIG. 23C).

In another series the target is T3, ENL (Homo sapiens, UniProt Q03111).
T3 construct: against AF9(497-568) and ENL (489-559) proteins running different tested concentrations over CM5 chip; MBP (pMSCG9-LIC vector); made in house; host or cells: Escherichia coli BL21 (DE3)
T3 sequence (Q03111 489-559): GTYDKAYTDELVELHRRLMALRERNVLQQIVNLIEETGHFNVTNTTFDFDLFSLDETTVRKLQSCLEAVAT
The experiment in a line: SPR competitive binding assay of small molecules, ENL. Conditions: SPR competitive based assay; read-out: ENL IC50 ± SD. The source says:
(§5) To further validate the binding of the confirmed compounds and identify potential promiscuous inhibitors, several secondary assays have been developed to support hit confirmation and the hit-to-probe optimization process. In order to determine that the compounds bind effectively to the target and disrupt protein-protein interaction, a SPR competitive binding assay was used. This assay uses a platform that differs from the FP-based assay where DOT1L recombinant protein (residues […]) is immobilized on a CM5 chip, allowing for testing of the inhibitors for their ability to disrupt AF9-DOT1L protein-protein interactions.
This class of compounds was also tested for their binding against ENL protein, which is highly homologous with AF9.

Series [2] relates to LSK (lin-sca-1+ckit+) progenitors. As to the kind of experiment: Toxicity on purified adult LSK progenitors. Conditions: 50 μM and 25 μM, up to seven days in culture. In kind it is cell-based, mouse.
Description: as §3, §4

The target in series [3] is T1, AF9. As to the kind of experiment: Saturation Transfer Difference (STD) NMR. In kind it is binding. The protocol:
as §1, §2

The test system of series [4] is HM2 cells stably expressing Hoxa9 and Meis 1. As to the kind of experiment: Cell growth of HM2 (Hoxa9/Meis1) cells. In kind it is cell-based, mouse.
Description: as §3, §4

Series [5] concerns the target T4, AF9 (Homo sapiens, UniProt P42568).
T4 sequence (P42568 497-568): T2 sequence (P42568 497-568)
As to the kind of experiment: SPR competitive binding assay of small molecules, AF9-DOT1L. To be noted: SPR competitive based assay; read-out: AF9 IC50 ± SD. On the set-up: against AF9(497-568) and ENL (489-559) proteins running different tested concentrations over CM5 chip; GB1 (pGB1-LIC vector); made in house; host or cells: Escherichia coli BL21 (DE3).
Description: Several secondary assays have already been developed to support hit confirmation and the hit-to-probe optimization process. The established and optimized SPR-based competitive assay utilizing DOT1L protein (826-1095) immobilized on the CM5 sensor chip was used as a secondary counter screen assay to validate binding of compounds to AF9. […] Both assays gave similar IC50 values.
as §5

In series [6] the test system is MLL-AF9 transformed mouse cells. As to the kind of experiment: Cell growth of MLL-AF9 transformed mouse cells. In kind it is cell-based. To be noted: 216 h.
Description: as §3, §4

The next series concerns the target MBP tag (Escherichia coli, UniProt P0AEX9). The experiment in a line: ThermoFluor binding assay, MBP tag only.

Where two headings read alike, the source gives them in different places.

Take `CCc1ccc(S(=O)(=O)N2c3ccccc3NC3=C(C(=O)CCC3)C2c2ccco2)cc1` (racemic) [Compound 38]: the Kd on AF9 [1] (several tested concentrations, read-out: KD values, global fitting of binding data) was 10 to 50 µM; at AF9 [1] (read-out: binding affinity (KD), steady state analysis) it was 35 µM. For the same molecule, at MBP-AF9, the “ΔTm of MBP-AF9 protein” value is reported as 1.2 degree. Besides, the “global H3K79 methylation level” value in the series with H3K79 methylation is reported as “not affected”. Further, the IC50 at ENL was determined as 30.7 ± 7.7 µM; on AF9 [5] it was 40 ± 1.5 µM. The “toxicity / growth inhibition of adult LSKs” value in series [2] is listed as “not toxic to normal hematopoiesis”. The “STD effects (direct binding to AF9)” value on AF9 [3] is on record as “strong STD effects”. Moreover, in series [4], the “cell growth of HM2 cells” value was “not affected”. In addition, the inhibition at 25 µM in series [6] (day 9, 25 μM) is 50%. The molecule further gave an inhibition at 50 µM in series [6] (day 9, 50 μM) of around 90%. Further, the “thermal stability of tag MBP only” value on MBP tag is recorded as “did not show any changes in thermal stability”.
